Here are results for six molecules from patent publication US9393244B2, “Increasing parkin activity by administering a deubiquitinating enzyme inhibitor” (Georgetown University, priority 2013, dated 2016).

One data set addresses T1, 20S proteasome (Homo sapiens, UniProt P28074).
T1 construct: endogenous in cells; host or cells: human M17 neuroblastoma cells
Kind of data set: Chymotrypsin-like proteasome activity assay in M17 cells. The format is cell-based. The settings on record: for effects of USP13 overexpression on proteasome activity: shRNA with USP13 overexpression. Here is the method:
(§1) To further determine whether USP13 targets parkin, M17 cells were transfected with 3 μg lentiviral plasmids containing parkin, USP13 or different shRNA USP13 clones (FIG. 27A) for 48 hr. The expression level of the shRNAs was determined by routine stereology of the GFP and VS-tagged lentivirus to ensure equal expression of lentiviral plasmids. USP13 gene expression level is verified by PCR. Co-expression of USP13 and parkin led to an increase (134%) in parkin level compared to parkin alone (FIG. 27A, 1st blot, N=4), but shRNA expression reduced USP13 and parkin levels relative to actin (FIG. 27A). […] To ascertain that manipulation of USP13 expression affects protein clearance, the activity of the 20S proteasome activity was measured using chymotrypsin-like assays. Proteasome activity was inhibited after 2 hr treatment with 20 μM proteasome inhibitor MG132 compared to control (LacZ) or parkin alone (FIG. 27B, N=4).

Another data set relates to USP10. Kind of data set: Western blot of STEN (soluble) extracts of M17 cells, endogenous USP10 level. The class given is cell-based, human. The note with it: M17 cells transfected with 3 μg lentiviral plasmids for 48 hr; FIG. 27A 2nd blot. The protocol: as §1
For orientation: In western blotting, separated proteins are transferred to a membrane and probed.

The test system of the next data set is parkin. The experiment in a line: Western blot of STEN (soluble) extracts of M17 cells, parkin level. The class given is cell-based, human. The settings on record: M17 cells transfected with 3 μg lentiviral plasmids for 48 hr; FIG. 27A 3rd blot. Here is the method:
as §1

Another data set has as its system USP13. Kind of data set: Western blot of STEN (soluble) extracts of M17 cells, USP13 level. The format is cell-based, human. The settings on record: M17 cells transfected with 3 μg lentiviral plasmids for 48 hr; FIG. 27A 1st blot. The protocol:
as §1

Peptide text beside a SMILES is read from it. * marks the point of attachment. Cbz = O=C(OCc1ccccc1)*

For `CC(C)C[C@@H](C=O)NC(=O)[C@H](CC(C)C)NC(=O)[C@H](CC(C)C)NC(=O)OCc1ccccc1` [MG132, reference compound] (Cbz-Leu-Leu-Leu-aldehyde), the proteasome activity entry is recorded as “inhibited” on 20S proteasome (2 hr treatment with 20 μM, compared to control (LacZ) or parkin alone, N=4) and “further inhibited” at 20S proteasome (cells co-expressing USP13 with parkin). On 20S proteasome (MG132 added to shRNA (F03, F02) conditions), the “effect on shRNA-mediated increase/reversal of proteasome activity” value was “blocked these effects”.
Consider “E07: USP13 shRNA clone, 5′ TTTCCAGTGAAGTACACAG 3′ (SEQ ID NO: 1)”, for which the “effect on USP10 level” value in the data set with USP10 is reported as “without any effects”.
With “E08: USP13 shRNA clone, 5′ TATTCGTTGCTCGTAGTGC 3′(SEQ ID NO: 5)”, the “effect on parkin level” value with parkin is reported as “did not produce any significant effects”. Also, the “effect on USP13 level” value in the data set with USP13 was “did not produce any significant effects”. Moreover, the “effect on USP10 level” value in the data set with USP10 is listed as “did not produce any significant effects”.
“F02: USP13 shRNA clone, 5′ TCTTGTAGACCCTGTCGCC 3′ (SEQ ID NO: 4)”: the “effects of USP13 overexpression on proteasome activity” value with 20S proteasome is “completely reversed”. For the same molecule, the “effect on USP10 level” value in the data set on USP10 is reported as “without any effects”.
Take “F03: USP13 shRNA clone, 5′ TTTCTCGCAGGTCGCATCT 3′ (SEQ ID NO: 3)”: the “increase of proteasome activity” value in the data set with 20S proteasome (blocking USP13 with shRNA, compared to control) came to 14%. For the same molecule, the “effects of USP13 overexpression on proteasome activity” value with 20S proteasome is on record as “completely reversed”. Besides, the “effect on USP10 level” value with USP10 was “without any effects”.
For the molecule “F04: USP13 shRNA clone, 5′AACTTAGTCATCTGTGTGT 3′ (SEQ ID NO: 2)”, the “effect on USP10 level” value in the data set on USP10 is given as “without any effects”.
